target: human IDO1 (Homo sapiens, UniProt P14902); assay: Assessment of human IDO-1 inhibitory activity in HEK cells (human IDO1/HEK293 cells, kynurenine read-out with Ehrlich reagent, absorbance 490 nm); format: cell-based; set-up: expressed in transfected cells; conditions: HEK Human IDO-1 cellular assay
In short: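 Kynurenine output from stably IDO1-transfected HEK293 cells (10,000/well, phenol red-free RPMI, 10% FBS) after 20 h compound exposure at 37 °C. The reaction was stopped with 0.2% TCA and heated 30 min at 50 °C, then the supernatant was mixed with Ehrlich reagent and read at 490 nm. IC50 was set against DMSO and a 500 nM reference standard as 0 and 100% inhibition.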

Chain of human IDO1 (P14902 whole entry): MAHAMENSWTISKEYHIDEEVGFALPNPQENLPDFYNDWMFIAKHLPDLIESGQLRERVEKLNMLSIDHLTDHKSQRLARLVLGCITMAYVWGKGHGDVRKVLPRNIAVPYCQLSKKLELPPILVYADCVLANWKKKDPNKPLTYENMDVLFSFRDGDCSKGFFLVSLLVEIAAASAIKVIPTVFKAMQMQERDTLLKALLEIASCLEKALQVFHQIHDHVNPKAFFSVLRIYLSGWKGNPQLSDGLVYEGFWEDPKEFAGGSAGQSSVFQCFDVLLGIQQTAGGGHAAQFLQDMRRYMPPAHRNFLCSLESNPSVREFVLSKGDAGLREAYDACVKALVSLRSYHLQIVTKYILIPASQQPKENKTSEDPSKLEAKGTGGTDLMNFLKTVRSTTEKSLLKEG

Row | SMILES | IC50 [nM]
1 | COCCC(CC(=O)O)c1ccc(N(CC(C)C)C2CCCCC2)c(NC(=O)Nc2ccc(C)cc2)c1 (racemic) [Example 1003, (+/−)-3-(4-(Cyclohexyl(isobutyl)amino)-3-(3-(p-tolyl)ureido)phenyl)-5-methoxypentanoic acid] | < 5
2 | CCC(CC(=O)O)c1cc(NC(=O)Nc2ccc(C)cc2F)c(N(CC(C)C)C2CCCCC2)cc1F (racemic) [Example 1119, (±)-3-(4-(Cyclohexyl(isobutyl)amino)-2-fluoro-5-(3-(2-fluoro-4-methylphenyl)ureido)phenyl)pentanoic acid] | < 5
3 | CC(CC(=O)O)c1ccc(N2C[C@@H](C)O[C@@H](C)C2)c(Nc2ccc(Cl)cc2)c1 (single isomer, unassigned) [Example 745] | < 50
4 | CC[C@H](CC(=O)O)c1ccc(N(CC)C2CCOCC2)c(Nc2ccc(Cl)c(OC)c2)c1 (single isomer, unassigned) [Example 521] | < 50
5 | CC[C@H](CC(=O)O)c1ccc(N2CCOC[C@@H]2C(C)C)c(Nc2ccc3c(c2)OC(F)(F)O3)c1 (single isomer, unassigned) [Example 93] | < 50
6 | CCC(CC(=O)O)c1cc(NC(=O)Nc2cncnc2)c(N(CC(C)C)C2CCCCC2)cc1F (single isomer, unassigned) [Example 1123, 3-(4-(cyclohexyl(isobutyl)amino)-2-fluoro-5-(3-(pyrimidin-5-yl)ureido)phenyl)pentanoic acid] | < 5
7 | CCC(CC(=O)O)c1cc(NC(=O)Nc2cnc(OC)nc2)c(N(CC(C)C)CC(C)C)cc1F (racemic) [Example 1140, (±)-3-(4-(Diisobutylamino)-2-fluoro-5-(3-(2-methoxypyrimidin-5-yl)ureido)phenyl)pentanoic acid] | < 5
8 | Cc1ccc(CC(=O)Nc2cc(C(CC(=O)O)C3CC3)ccc2N(CC(C)C)C2CCCCC2)cc1 (single isomer, unassigned) [Example 1247, 3-(4-(Cyclohexyl(isobutyl)amino)-3-(2-(p-tolyl)acetamido)phenyl)-3-cyclopropylpropanoic acid] | < 5
9 | CCCCc1ccc(NC(=O)Nc2cc(C(CC)CC(=O)O)cc(F)c2N(CC(C)C)CC(C)C)cc1 (racemic) [Example 973, (+/−)-3-(3-(3-(4-butylphenyl)ureido)-4-(diisobutylamino)-5-fluorophenyl)pentanoic acid] | < 50
10 | CCC(CC(=O)O)c1ccc(N2CCC[C@H]2C(C)(C)O)c(NC(=O)Nc2ccc(Cl)cc2F)c1 (single isomer, unassigned) [Example 812] | > 50
11 | CCC(CC(=O)O)c1cc(F)c(N(CC(C)C)CC(C)C)c(NC(=O)Nc2ccccc2Cl)c1 (racemic) [Example 975, (+/−)-3-(3-(3-(2-chlorophenyl)ureido)-4-(diisobutylamino)-5-fluorophenyl)pentanoic acid] | < 50
12 | COCC(CC(=O)O)c1ccc(N(CC(C)C)CC(C)C)c(NC(=O)Nc2cncnc2)c1 (single isomer, unassigned) [997-1] | > 50
13 | COCC(CC(=O)O)c1ccc(N(CC(C)C)C2CCOCC2)c(NC(=O)Nc2ccc(C)cc2)c1 (single isomer, unassigned) [Example 1209, 3-(4-(Isobutyl(tetrahydro-2H-pyran-4-yl)amino)-3-(3-(p-tolyl)ureido)phenyl)-4-methoxybutanoic acid] | > 50
14 | COCC(CC(=O)O)c1ccc(N(CC(C)C)C2CCCCC2)c(NC(=O)Nc2ccc(C)cc2)c1 (racemic) [Example 988, (+/−)-3-(4-(Cyclohexyl(isobutyl)amino)-3-(3-(p-tolyl)ureido)phenyl)-4-methoxybutanoic acid] | < 5
15 | CCOc1ccc(NC(=O)Nc2cc(C(COC)CC(=O)O)cc(F)c2N(CC(C)C)CC(C)C)c(F)c1 (single isomer, unassigned) [Example 1178, 3-(4-(Diisobutylamino)-3-(3-(4-ethoxy-2-fluorophenyl)ureido)-5-fluorophenyl)-4-methoxybutanoic acid] | < 50
16 | CCC(CC(=O)O)c1ccc(N(CC)C2CCCOC2)c(NC(=O)Nc2ccc(C)cc2)c1 (single isomer, unassigned) [Example 73 D4, 3-(4-(Ethyl(tetrahydro-2H-pyran-3-yl)amino)-3-(3-(p-tolyl)ureido)phenyl)pentanoic acid] | < 5
17 | CCOc1ccc(NC(=O)Nc2cc(C(C)CC(=O)O)ccc2N(CC(C)C)C2CCOCC2)cc1 (single isomer, unassigned) [Example 963, 3-(3-(3-(4-ethoxyphenyl)ureido)-4-(isobutyl(tetrahydro-2H-pyran-4-yl)amino)phenyl)butanoic acid] | > 50
18 | CC[C@@H](CC(=O)O)c1ccc(N(CC)C2CCOCC2)c(Nc2ccc3nncn3c2)c1 (single isomer, unassigned) [Example 471] | > 50
19 | CCOc1ncc(Nc2cc(C(C)CC(=O)O)ccc2N(CC)C2CCOCC2)cn1 (single isomer, unassigned) [Example 619, 3-(3-((2-ethoxypyrimidin-5-yl)amino)-4-(ethyl (tetrahydro-2H-pyran-4-yl)amino)phenyl)butanoic acid] | < 50

Row | SMILES | IC50 [nM]
20 | CCCN(CC1CC1)c1ccc(C(CC)CC(=O)O)cc1Nc1cnc(OCC)nc1 (single isomer, unassigned) [Example 657, 3-(4-((cyclopropylmethyl) (propyl)amino)-3-((2-ethoxypyrimidin-5-yl)amino)phenyl)pentanoic acid] | < 50
21 | CC[C@@H](CC(=O)O)c1ccc(N(CC(C)(C)O)C2CCCCC2)c(Nc2ccc(F)cc2)c1 (single isomer, unassigned) [Example 225] | < 5
22 | COCC(CC(=O)O)c1ccc(N(CC(C)C)C2CCCCC2)c(NC(=O)Nc2ccc(Cl)cc2F)c1 (racemic) [Example 984, (+/−)-3-(3-(3-(4-Chloro-2-fluorophenyl)ureido)-4-(cyclohexyl(isobutyl)amino)phenyl)-4-methoxybutanoic acid] | < 5
23 | CC[C@@H](CC(=O)O)c1ccc(N(CC(C)C)C2CCS(=O)(=O)CC2)c(NC(=O)Nc2ccc(OC)cc2F)c1 (single isomer, unassigned) [Example 216] | > 50
24 | CCC(CC(=O)O)c1cc(F)c(N(CC(C)C)CC(C)C)c(NC(=O)Cc2ccc(C)cc2F)c1 (single isomer, unassigned) [Example 1094 E2] | < 5
25 | CCC(CC(=O)O)c1ccc(N(CC(C)C)C2CCCCC2)c(Nc2ccc(Cl)c(OCC(F)(F)F)c2)c1 (single isomer, unassigned) [Example 644, 3-(3-((4-chloro-3-(2,2,2-trifluoroethoxy)phenyl)amino)-4-(cyclohexyl (isobutyl)amino)phenyl) pentanoic acid] | < 50
26 | CCC(CC(=O)O)c1ccc(N(CC(C)C)C2CCCCC2)c(Nc2ccc(Cl)c(F)c2)c1 (single isomer, unassigned) [Example 310, 3-(3-((4-chloro-3-fluorophenyl)amino)-4-(cyclohexyl(isobutyl)amino)phenyl)pentanoic acid] | < 5
27 | CC[C@@H](CC(=O)O)c1ccc(N(CC(C)(C)O)C2CCCCC2)c(Nc2ccc(C#N)cc2)c1 (single isomer, unassigned) [Example 227] | < 5
28 | CC[C@H](CC(=O)O)c1ccc(N(CC(C)C)C2CCS(=O)(=O)CC2)c(Nc2ccc3c(c2)OC(F)(F)O3)c1 (single isomer, unassigned) [Example 215] | < 5
29 | CCN(c1ccc([C@@H](COC)CC(=O)O)cc1Nc1cnc(C)nc1)C1CCOCC1 (single isomer, unassigned) [Example 379] | > 50
30 | COCC(CC(=O)O)c1ccc(N(CC2CC2)C2CCOCC2)c(Nc2ccc3nc(C)sc3c2)c1 (single isomer, unassigned) [Example 680, 3-(4-((cyclopropylmethyl) (tetrahydro-2H-pyran-4-yl)amino)-3-((2-methylbenzo[d]thiazol-6-yl)amino)phenyl)-4-methoxybutanoic acid] | < 50
31 | CCC(CC(=O)O)c1cc(NC(=O)Nc2cnc(C)nc2)c(N(CC(C)C)C2CCCCC2)cc1F (single isomer, unassigned) [Example 1126, 3-(4-(Cyclohexyl(isobutyl)amino)-2-fluoro-5-(3-(2-methylpyrimidin-5-yl)ureido)phenyl)pentanoic acid] | < 5
32 | CCC(CC(=O)O)c1ccc(N2CCC[C@H]2C(C)(C)O)c(NC(=O)Nc2ccc(F)cc2)c1 (single isomer, unassigned) [Example 813] | > 50
33 | CC[C@@H](CC(=O)O)c1ccc(N2CCC[C@H]2C(C)(C)O)c(NC(=O)Nc2ccc(C)cc2)c1 (single isomer, unassigned) [Example 769] | > 50
34 | COCC(CC(=O)O)c1ccc(N(CC(C)C)C2CCCCC2)c(NC(=O)Nc2ccc(Cl)cc2F)c1 (single isomer, unassigned) [985-1] | < 5
35 | CCC(CC(=O)O)c1cc(NC(=O)Nc2ccc3c(c2)OCO3)c(N(CC(C)C)C2CCCCC2)cc1F (racemic) [Example 1110, (±)-3-(5-(3-(Benzo[d][1,3]dioxol-5-yl)ureido)-4-(cyclohexyl(isobutyl)amino)-2-fluorophenyl)pentanoic acid] | < 5
36 | CCN(c1ccc(C(CC(=O)O)C2CC2)cc1Nc1ccc(C#N)cc1)C1CCOCC1 (single isomer, unassigned) [Example 37, 3-(3-((4-cyanophenyl)amino)-4-(ethyl(tetrahydro-2H-pyran-4-yl)amino)phenyl)-3-cyclopropylpropanoic acid] | < 5
37 | CC(CC(=O)O)c1ccc(N(CC(C)(C)O)C2CCCCC2)c(Nc2ccc(Cl)c(OCC(F)(F)F)c2)c1 (single isomer, unassigned) [Example 51, 3-(3-((4-chloro-3-(2,2,2-trifluoroethoxy)phenyl)amino)-4-(cyclohexyl(2-hydroxy-2-methylpropyl)amino)phenyl)butanoic acid] | > 50

— US9790169B2, “IDO inhibitors” (BRISTOL-MYERS SQUIBB COMPANY, priority 2015, dated 2017)
